From ChEMBL document CHEMBL1201862, “PubChem BioAssay data set” (2004)
Activity calls are given as the source filed them.

Experiments:
[1] = Luminescence Cell-Based Dose Retest to Confirm Inhibitors of Cancer Stem Cells. [Related pubchem assays (depositor defined):AID2717, AID2721]; assay type: functional; conditions: Homo sapiens
[2] = target: Cytochrome P450 3A4 (Homo sapiens, UniProt P08684);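 also: CYP3A4 tested as one member of a cytochrome P450 panel screen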
[3] = target: Cytochrome P450 2C19 (Homo sapiens, UniProt P33261); assay: Cytochrome panel assay with activity outcomes. Panel member name: p450-cyp2c19 Compounds with AC50 equal or less than 10 uM are considered active; assay type: functional
Sequence of Cytochrome P450 2C19 (P33261 whole entry): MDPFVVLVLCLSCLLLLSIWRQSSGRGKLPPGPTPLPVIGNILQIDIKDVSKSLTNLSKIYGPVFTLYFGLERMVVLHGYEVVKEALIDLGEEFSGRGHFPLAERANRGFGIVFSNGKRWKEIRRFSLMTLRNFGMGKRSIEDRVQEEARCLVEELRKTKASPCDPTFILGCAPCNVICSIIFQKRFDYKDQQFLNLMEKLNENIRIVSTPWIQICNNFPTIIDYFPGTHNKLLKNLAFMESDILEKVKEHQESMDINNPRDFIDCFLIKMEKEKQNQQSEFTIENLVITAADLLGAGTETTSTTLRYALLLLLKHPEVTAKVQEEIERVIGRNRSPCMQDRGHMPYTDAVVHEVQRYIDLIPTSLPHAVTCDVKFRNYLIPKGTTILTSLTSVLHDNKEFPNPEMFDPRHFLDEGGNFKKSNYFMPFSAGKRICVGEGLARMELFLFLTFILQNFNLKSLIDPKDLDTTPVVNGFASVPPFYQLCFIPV

[4] = target: Cytochrome P450 2D6 (Homo sapiens, UniProt P10635);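 also: CYP2D6 member of a cytochrome P450 panel assay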
Sequence of Cytochrome P450 2D6 (P10635 whole entry): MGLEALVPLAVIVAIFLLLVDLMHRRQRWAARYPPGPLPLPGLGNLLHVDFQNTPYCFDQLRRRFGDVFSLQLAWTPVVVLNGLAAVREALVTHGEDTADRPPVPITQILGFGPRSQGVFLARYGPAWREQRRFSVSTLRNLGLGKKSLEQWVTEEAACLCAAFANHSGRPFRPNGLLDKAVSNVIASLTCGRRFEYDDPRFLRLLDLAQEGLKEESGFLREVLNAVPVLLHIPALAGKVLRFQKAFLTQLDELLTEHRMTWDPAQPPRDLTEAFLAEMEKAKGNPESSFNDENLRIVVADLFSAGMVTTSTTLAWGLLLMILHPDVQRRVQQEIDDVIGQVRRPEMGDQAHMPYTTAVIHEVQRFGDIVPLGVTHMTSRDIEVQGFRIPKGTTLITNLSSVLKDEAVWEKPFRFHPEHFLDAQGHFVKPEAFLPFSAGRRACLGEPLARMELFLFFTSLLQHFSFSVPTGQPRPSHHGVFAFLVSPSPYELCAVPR

[5] = target: Cytochrome P450 2C9 (Homo sapiens, UniProt P11712)
Sequence of Cytochrome P450 2C9 (P11712 whole entry): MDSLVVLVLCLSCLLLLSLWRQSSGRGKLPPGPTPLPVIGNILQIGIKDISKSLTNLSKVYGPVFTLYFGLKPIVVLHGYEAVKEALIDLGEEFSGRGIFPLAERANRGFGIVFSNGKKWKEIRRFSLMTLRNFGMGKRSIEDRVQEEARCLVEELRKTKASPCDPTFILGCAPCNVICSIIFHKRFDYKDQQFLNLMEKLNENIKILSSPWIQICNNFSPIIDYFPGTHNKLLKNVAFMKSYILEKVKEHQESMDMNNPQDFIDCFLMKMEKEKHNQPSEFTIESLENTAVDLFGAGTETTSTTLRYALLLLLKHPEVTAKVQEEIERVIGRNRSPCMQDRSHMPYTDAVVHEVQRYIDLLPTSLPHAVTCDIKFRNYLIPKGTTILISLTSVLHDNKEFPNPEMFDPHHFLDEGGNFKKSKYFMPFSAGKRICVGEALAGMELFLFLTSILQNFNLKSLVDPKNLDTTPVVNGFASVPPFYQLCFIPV

[6] = target: T1, Heat shock factor protein 1 (Mus musculus, UniProt P38532); assay: enhancement of HSF1-driven luciferase signal – cell-based, NIH3T3, luminescence, dose retest, confirmation (AID 435004); assay type: functional;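 also: stress induced by proteasome inhibitor MG132 added 30 min after compound; luciferase reporter driven by HSF1 response element in NIH3T3 cells; actives raise luminescence as potentiators of the MG132 stress response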
T1 sequence (P38532 whole entry): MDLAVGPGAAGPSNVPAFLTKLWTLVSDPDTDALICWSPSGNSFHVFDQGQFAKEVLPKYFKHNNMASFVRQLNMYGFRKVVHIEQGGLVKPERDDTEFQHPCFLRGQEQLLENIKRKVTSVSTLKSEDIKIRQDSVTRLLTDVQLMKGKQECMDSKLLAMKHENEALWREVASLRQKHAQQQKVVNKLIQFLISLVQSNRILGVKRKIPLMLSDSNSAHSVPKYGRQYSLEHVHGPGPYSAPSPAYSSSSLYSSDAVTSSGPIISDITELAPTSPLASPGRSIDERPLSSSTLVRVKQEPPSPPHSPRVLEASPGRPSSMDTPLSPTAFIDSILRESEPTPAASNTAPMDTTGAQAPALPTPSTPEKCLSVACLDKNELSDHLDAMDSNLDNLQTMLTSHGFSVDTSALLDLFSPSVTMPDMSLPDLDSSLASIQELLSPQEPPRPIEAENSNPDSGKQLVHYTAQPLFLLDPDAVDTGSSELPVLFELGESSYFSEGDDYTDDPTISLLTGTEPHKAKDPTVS

[7] = alpha-synuclein stem-loop luciferase translation blockers – H4 neuroglioma cells, luminescence, confirmation (AID 1988); assay type: functional, cell-based
[8] = Luminescence Cell-Based Dose Response HTS to Identify Inhibitors of 5'UTR Stem-Loop Driven Prion Protein mRNA Translation in H4 Neuroglioblastoma Cells. [Related pubchem assays: 1827 (Project Summary), 1813 (Primary HTS)]; assay type: functional
[9] = non-specific 3'UTR reporter inhibition in Clone20-Shn3RL – cell-based, Renilla luciferase, cherry-picked, counter-screen for Shn3 inhibitor project, dose response (AID 624133); assay type: functional
[10] = reduction of Shn3 3'UTR-driven luciferase in osteoblasts – cell-based, Clone20 osteoblasts, firefly luciferase, cherry-picked, dose response (AID 624132); assay type: functional;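 also: firefly luciferase luminescence from reporter carrying the Shn3 3'UTR in osteoblasts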
[11] = target: T2, Replicative DNA helicase DnaB (Mycobacterium tuberculosis, UniProt P9WMR3); assay: DnaB intein splicing inhibitors, dose response, biochemical, cell-free fluorescence (AID 449749); assay type: functional
T2 sequence (P9WMR3 whole entry): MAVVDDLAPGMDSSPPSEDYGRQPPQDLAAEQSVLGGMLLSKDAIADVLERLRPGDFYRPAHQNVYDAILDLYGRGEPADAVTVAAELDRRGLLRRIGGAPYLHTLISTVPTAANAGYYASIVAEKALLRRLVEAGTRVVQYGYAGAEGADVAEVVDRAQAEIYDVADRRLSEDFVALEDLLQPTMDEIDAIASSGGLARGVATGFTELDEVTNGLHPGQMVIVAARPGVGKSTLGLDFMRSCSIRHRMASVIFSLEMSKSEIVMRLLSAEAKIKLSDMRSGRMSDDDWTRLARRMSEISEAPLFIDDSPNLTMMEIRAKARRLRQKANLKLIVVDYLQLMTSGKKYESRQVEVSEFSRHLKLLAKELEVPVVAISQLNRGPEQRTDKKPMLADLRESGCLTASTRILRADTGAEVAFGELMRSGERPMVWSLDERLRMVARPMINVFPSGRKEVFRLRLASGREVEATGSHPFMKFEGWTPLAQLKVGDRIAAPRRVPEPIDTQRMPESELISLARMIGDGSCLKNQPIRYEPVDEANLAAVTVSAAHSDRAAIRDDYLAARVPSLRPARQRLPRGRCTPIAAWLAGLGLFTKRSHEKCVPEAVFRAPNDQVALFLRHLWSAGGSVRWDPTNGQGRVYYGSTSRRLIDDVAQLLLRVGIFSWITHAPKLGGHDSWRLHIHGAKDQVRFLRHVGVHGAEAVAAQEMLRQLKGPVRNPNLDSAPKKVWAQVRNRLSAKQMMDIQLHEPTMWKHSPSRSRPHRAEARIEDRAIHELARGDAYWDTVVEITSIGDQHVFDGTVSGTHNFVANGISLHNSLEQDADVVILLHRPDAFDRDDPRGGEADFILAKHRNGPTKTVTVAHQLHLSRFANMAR

[12] = target: T3, Protein RecA (Mycobacterium tuberculosis, UniProt P9WHJ3); assay: Fluorescence Cell-Free Homogeneous Dose Retest to Identify Inhibitors of RecA-Intein Splicing Activity. [Related pubchem assays (depositor defined):AID2097, AID2223, AID489010, AID492950]; assay type: functional
T3 sequence (P9WHJ3 whole entry): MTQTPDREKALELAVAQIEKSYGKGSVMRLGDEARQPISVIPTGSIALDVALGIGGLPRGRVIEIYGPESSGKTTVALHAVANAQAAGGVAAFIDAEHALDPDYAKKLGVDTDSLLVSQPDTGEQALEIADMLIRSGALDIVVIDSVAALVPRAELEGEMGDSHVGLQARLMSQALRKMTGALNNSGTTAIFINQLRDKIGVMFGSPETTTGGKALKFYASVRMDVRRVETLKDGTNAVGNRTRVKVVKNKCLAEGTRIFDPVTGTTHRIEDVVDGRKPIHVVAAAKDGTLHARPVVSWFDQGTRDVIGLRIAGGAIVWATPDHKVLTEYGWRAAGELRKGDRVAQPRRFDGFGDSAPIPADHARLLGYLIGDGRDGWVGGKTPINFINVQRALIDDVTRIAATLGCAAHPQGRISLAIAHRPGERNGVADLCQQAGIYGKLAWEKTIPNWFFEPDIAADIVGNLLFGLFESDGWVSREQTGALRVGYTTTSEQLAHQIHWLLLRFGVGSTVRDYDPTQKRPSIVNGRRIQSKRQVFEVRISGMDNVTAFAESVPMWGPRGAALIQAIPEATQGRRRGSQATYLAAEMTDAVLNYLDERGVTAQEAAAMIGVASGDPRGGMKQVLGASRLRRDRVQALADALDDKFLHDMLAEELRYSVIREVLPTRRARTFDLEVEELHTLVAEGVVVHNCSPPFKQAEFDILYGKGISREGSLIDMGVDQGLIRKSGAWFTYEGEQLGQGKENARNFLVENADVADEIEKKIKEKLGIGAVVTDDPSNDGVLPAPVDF

[13] = target: T4, Cytochrome P450 1A2 (Homo sapiens, UniProt P05177);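 also: PubChem cytochrome P450 panel assay, CYP1A2 panel member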
T4 sequence (P05177 whole entry): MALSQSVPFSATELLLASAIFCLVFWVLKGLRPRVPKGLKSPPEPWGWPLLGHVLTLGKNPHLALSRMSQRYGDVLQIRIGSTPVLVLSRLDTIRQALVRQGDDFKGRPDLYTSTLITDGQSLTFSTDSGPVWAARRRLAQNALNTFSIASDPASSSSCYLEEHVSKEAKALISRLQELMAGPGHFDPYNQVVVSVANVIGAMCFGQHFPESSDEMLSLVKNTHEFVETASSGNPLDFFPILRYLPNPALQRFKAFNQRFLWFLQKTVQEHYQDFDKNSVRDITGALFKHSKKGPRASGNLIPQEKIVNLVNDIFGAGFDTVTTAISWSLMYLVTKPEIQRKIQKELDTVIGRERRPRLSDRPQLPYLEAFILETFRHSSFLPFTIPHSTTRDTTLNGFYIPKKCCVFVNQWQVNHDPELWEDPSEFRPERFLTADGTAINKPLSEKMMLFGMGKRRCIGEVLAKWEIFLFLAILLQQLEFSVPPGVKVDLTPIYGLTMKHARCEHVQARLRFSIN

[14] = tested on: H4; assay: Luminescence Cell-Based Dose Response HTS to Identify Activators of 5'UTR Stem-Loop Driven Prion Protein mRNA Translation in H4 Neuroglioblastoma Cells. [Related pubchem assays: 1829 (Project Summary), 1814 (Primary HTS)]; assay type: functional; conditions: Homo sapiens
[15] = Luminescence Cell-Based Dose Response HTS to Identify Activators of Luciferase Translation or Activity in H4 […] Cells. [Related pubchem assays: 1829 (Project Summary), 1814 (Primary HTS)]; assay type: functional
[16] = Luminescence Cell-Based Dose Confirmation HTS to Identify Activators of 5'UTR Stem-Loop Driven Alpha-Synuclein mRNA Translation in H4 Neuroglioblastoma Cells. [Related pubchem assays: 1829 (Project Summary), 1814 (Primary HTS)]; assay type: functional

Sequence of Cytochrome P450 3A4 (P08684 whole entry): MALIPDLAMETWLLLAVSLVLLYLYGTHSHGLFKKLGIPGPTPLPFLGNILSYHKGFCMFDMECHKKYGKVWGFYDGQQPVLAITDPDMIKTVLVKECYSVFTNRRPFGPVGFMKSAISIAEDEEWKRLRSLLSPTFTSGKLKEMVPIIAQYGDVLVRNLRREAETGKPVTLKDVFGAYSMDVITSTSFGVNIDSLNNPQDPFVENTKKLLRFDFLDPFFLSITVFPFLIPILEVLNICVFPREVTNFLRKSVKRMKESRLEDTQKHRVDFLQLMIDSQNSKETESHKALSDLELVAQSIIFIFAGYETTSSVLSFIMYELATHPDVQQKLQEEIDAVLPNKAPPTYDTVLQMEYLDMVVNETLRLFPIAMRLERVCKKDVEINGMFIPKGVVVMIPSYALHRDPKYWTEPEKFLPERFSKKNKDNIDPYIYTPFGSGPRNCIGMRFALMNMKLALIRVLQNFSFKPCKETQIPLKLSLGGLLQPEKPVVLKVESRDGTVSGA

## COc1ccc(Cn2c3ccc(OC)cc3c3nc4ccccc4nc32)cc1
[1]
  AC50: 13 µM (active)

## Cc1ccc(CS(=O)(=O)CCC(=O)NCCN2CCCC2)cc1
[2]
  AC50: 25.1 µM (inconclusive)
[3]; read-out: AC50
  AC50: 39.8 µM (inconclusive)
[4]
  AC50: 0.1 µM (inconclusive)

## COc1ccc(-c2csc(NC(=O)Cn3nc(C)cc3C)n2)cc1
[2]
  AC50: 15.8 µM (inconclusive)
[5]
  AC50: 0.794 µM (inconclusive)

## O=C(/C=C/c1ccc2c(c1)OCO2)NCCSCc1ccc(Cl)cc1
[1]
  AC50: 0.922 µM (active)

## Cc1cccc(CNc2cc(-c3ccccc3CN(C)C)ncn2)c1
[3]
  AC50: inconclusive
[4]
  AC50: 20 µM (inconclusive)

## N#Cc1ccc(-c2ccc(F)cc2)nc1Sc1ccccc1
[2]
  AC50: 12.6 µM (inconclusive)
[3]; read-out: AC50
  AC50: 5.01 µM (inconclusive)
[5]
  AC50: 5.01 µM (inconclusive)

## COc1ccccc1NC(=O)Nc1nc(CC(=O)N2CCN(c3ccccc3)CC2)cs1
[6]
  EC50: > 260 µM (inactive)

## Nc1ncnc(N)c1N=Nc1ccccc1
[7]
  EC50: 11.2 µM (active)
[8]
  EC50: 15.7 µM (active)

## CN1C(=O)c2cccc(NCCCCCCN3C(=O)c4ccccc4C3=O)c2C1=O
[9]
  AC50: 17.2 µM (active)
[10]
  AC50: 5.57 µM (active)

## COc1ccc(-c2sc3cc4c(cc3c2C#CC2(O)CCCCC2)OCO4)cc1
[1]
  AC50: 4.07 µM (active)

## Cc1nn(-c2ccccc2)c2c1C(c1ccncc1)C(C#N)=C(N)O2 (stereo not drawn)
[11]
  AC50: 12.7 µM (active)
[12]
  EC50: 3.05 µM (active)

## FC(F)(F)c1ccccc1-c1nccc(NCCN2CCOCC2)n1
[3]; read-out: AC50
  AC50: 6.31 µM (inconclusive)
[4]
  AC50: 12.6 µM (inconclusive)

## Cc1ccc(NS(=O)(=O)c2sc3ccc(Cl)cc3c2C)cc1
[1]
  AC50: 3.78 µM (active)

## Cc1onc(-c2ccccc2)c1NC(=O)N(CCC#N)Cc1ccccc1
[6]
  EC50: > 260 µM (inactive)

## O=C(CN1CCOCC1)N(c1ccccc1)c1ccc2ccccc2c1
[6]
  EC50: > 260 µM (inactive)

## Cc1ccn(CC(=O)N2CCCC(N3CCN(c4ccc(F)cc4)CC3)C2)n1 (stereo not drawn)
[6]
  EC50: > 260 µM (inactive)

## O=C1Oc2ccccc2C(=O)/C1=C\N1C(=O)N/C(=C\c2ccccc2O)C1=O
[2]
  AC50: 3.98 µM (inconclusive)
[3]; read-out: AC50
  AC50: 6.31 µM (inconclusive)
[4]
  AC50: 3.98 µM (inconclusive)
[13]
  AC50: 0.316 µM (inconclusive)

## CCCS(=O)(=O)N1CCCC(C(=O)NCCCN2CCN(c3ccc(F)cc3)CC2)C1 (stereo not drawn)
[4]
  AC50: 5.01 µM (inconclusive)

## Cc1ccc(-n2nc(C)c3c2OC(N)=C(C#N)C3c2cccs2)cc1 (stereo not drawn)
[14]
  EC50: > 120 µM (not active)
[11]
  AC50: 3.81 µM (active)
[15]
  EC50: 33 µM (active)
[16]
  EC50: > 120 µM (not active)

## CC(C)NCC(O)COCc1ccc(Cl)cc1 (stereo not drawn)
[6]
  EC50: > 260 µM (inactive)

## NCCCN1CCN(c2ccccc2)CC1
[4]
  AC50: 3.16 µM (inconclusive)

## CC(=O)Nc1ccc(NC(=O)c2ccc(NS(=O)(=O)c3cc(C(C)(C)C)cc(C)c3C)cc2)cc1
[6]
  EC50: 12.5 µM (active)

## COc1cc(C2(c3ccc(O)c(OC)c3)C(=O)Nc3c(C)cc(Br)cc32)ccc1O
[11]
  AC50: 5.77 µM (active)
[12]
  EC50: 14.4 µM (active)

## CCN(CC(=O)Nc1ccc(NC(C)=O)cc1)C(=O)c1ccccc1CCc1ccccc1
[1]
  AC50: > 195 µM (inactive)

## CC(c1ccccc1)N1CC(C(=O)N2CCN(c3ccc(F)cc3)CC2)CC1=O (stereo not drawn)
[6]
  EC50: > 260 µM (inactive)

## CC(NC(=O)c1ccc(Cl)cc1)c1nnc(SCc2ccc([N+](=O)[O-])cc2)n1C (stereo not drawn)
[2]
  AC50: 8.91 µM (inconclusive)
[3]; read-out: AC50
  AC50: 39.8 µM (inconclusive)
[5]
  AC50: 28.2 µM (inconclusive)
[13]
  AC50: 15.8 µM (inconclusive)

## O=C(CCC1CCCC1)/N=C1\SC2CS(=O)(=O)CC2N1c1ccccc1F (stereo not drawn)
[6]
  EC50: > 260 µM (inactive)

## Nc1nnnn1/N=C\c1ccc(Cl)c([N+](=O)[O-])c1
[6]
  EC50: > 260 µM (inactive)
